Data reported in patent US20090076029A1 (Palatin Technologies, Inc., priority 2007, published 2009).
Entries after “also recorded” stand apart in the source; their conditions may differ. Read-outs that look alike come from different tables or passages of the source.

Legend:
[1] = system: T1, MC1-R; assay: cAMP functional assay, B-16 mouse melanoma cells expressing MC1-R; format: cell-based; conditions: cAMP assay at 1 μM
T1 construct: from B-16 mouse melanoma cells (containing MC1-R); endogenous in cells; host or cells: B-16 mouse melanoma cells
Protocol: (§1) General method for EC50 determination in functional activity assay. Functional evaluation of compounds at melanocortin receptors was performed by measuring the accumulation of intracellular cAMP in HEK-293 cells expressing hMC3-R, hMC4-R or hMC5-R, and in B-16 mouse melanoma cells expressing MC1-R. Cells suspended in Earle's Balanced Salt Solution containing 10 mM HEPES (pH 7.5), 5 mM MgCl2, 1 mM glutamine, 0.1% albumin and 0.6 mM 3-isobutyl-1-methyl-xanthine, a phosphodiesterase inhibitor, were plated in 96 well plates at a density of 0.5×10^5 cells per well. Cells were incubated with the test compounds in the presence or absence of α-MSH for 1 hour at 37° C. cAMP levels in the cell lysates were measured using an EIA kit (Amersham). Data analysis and EC50 values were determined using nonlinear regression analysis with Prism Graph-Pad software.
(§2) Functional status. The agonist/antagonist status with respect to MC1-R, MC-3R, MC4-R and MC5-R of certain compounds of the invention was determined.

[2] = system: T2, hMC3-R; assay: cAMP functional assay, HEK-293 cells expressing hMC3-R; format: cell-based, human; conditions: cAMP assay at 1 μM
T2 construct: expressed in transfected cells; host or cells: HEK-293
Protocol: as §1, §2

[3] = system: T3, hMC5-R; assay: cAMP functional assay, HEK-293 cells expressing hMC5-R; format: cell-based, human; conditions: cAMP assay at 1 μM
T3 construct: expressed in transfected cells; host or cells: HEK-293
Protocol: as §1, §2

[4] = molecular target: T4, hMC4-R; assay: Competitive inhibition assay using [I125]-NDP-α-MSH, hMC4-R membranes; format: binding, human; conditions: for attenuation of binding of α-MSH and AgRP to MC4-R: both ligands (NDP-α-MSH and AgRP), summary
T4 construct: expressed in transfected cells; host or cells: HEK-293

[5] = molecular target: T3, hMC5-R; assay: Competitive inhibition assay using [I125]-NDP-α-MSH, hMC5-R membranes; format: binding, human; conditions: read-out: Ki (nM) (NDP-α-MSH) MC5-R
In short: (§3)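 Single-concentration displacement (usually 1 μM compound) of 0.2–0.4 nM [125I]-NDP-α-MSH, run 90 min at room temperature in pH 7.2 HEPES containing MgCl2, CaCl2 and KCl. Receptor sources: transfected HEK-293 membranes for human MC3-R/MC4-R/MC5-R, B-16 mouse melanoma membranes for MC1-R. Bound counts normalised to 1 μM α-MSH-defined specific binding; triplicates averaged, values below 0% set to 0%.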

[6] = molecular target: T2, hMC3-R; assay: Competitive inhibition assay using [I125]-NDP-α-MSH, hMC3-R membranes; format: binding, human; conditions: read-out: Ki (nM) (NDP-α-MSH) MC3-R
In short: as §3

[7] = molecular target: T5, MC1-R; assay: Competitive inhibition assay using [I125]-NDP-α-MSH, MC1-R membranes; format: binding, mouse; conditions: for Inhibition at 1 μM (NDP-α-MSH) MC1-R: 1 μM compound
T5 construct: other: 1 μM compound

[8] = system: T4, hMC4-R; assay: cAMP functional assay in HEK-293 cells expressing MC4-R (agonist, neutral antagonist/Schild); format: cell-based, human; conditions: for intrinsic activity at MC4-R: NDP-α-MSH maximal stimulation = 1.0; for functional status at MC4-R: mostly at 1 μM
In short: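 Cells in EBSS/HEPES pH 7.5 with 0.3 mM IBMX, exposed to compound (0.05-5000 nM, 1% DMSO) for 1 h at 37 °C; cAMP by EIA, EC50 by nonlinear regression. Antagonism: 30 min compound pre-incubation, then 1 nM NDP-α-MSH for 1 h; Schild analysis over 0.005-5000 nM agonist gives pA2.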

[9] = system: T4, hMC4-R; format: binding, human; conditions: for Inhibition at 1 μM (AgRP) MC4-R: 1 μM compound
In short: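 Membranes from hMC4-R-expressing cells incubated 1 h at 37 °C with 0.2 nM [I^125]-AgRP (83-132) and increasing compound in 25 mM HEPES pH 7.5, 100 mM NaCl, 2 mM CaCl2, 2 mM MgCl2, 0.3 mM 1,10-phenanthroline, 0.5% BSA. Filtration, gamma counting; specific binding kept ≤10% of added counts.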

[10] = system: T6, MC4-R; format: cell-based; conditions: HEK-293 cells expressing MC4-R
T6 construct: expressed in transfected cells; host or cells: HEK-293
Excerpt: Assay for Antagonists of AgRP in HEK-293/MC4-R Cells stimulated with Forskolin. […] AgRP causes a decrease in the basal adenylyl cyclase activity only to the extent of 40-50%. Even though the AgRP-induced decrease in cAMP levels is substantial, conventional assay methods, such as those described above, have limited sensitivity, precluding detecting small changes that are reversed by certain antagonists to AgRP. This limitation was circumvented by the use of a non-specific activator, forskolin, which directly activates adenylyl cyclase activity and raises cyclic AMP levels. Forskolin, a cell permeable diterpenoid initially isolated from Coleus forskohlii, has the ability to stimulate adenylyl cyclase activity and increase intracellular cAMP, thus activating cAMP-dependent protein kinase and other cAMP receptor proteins. See, e.g., Seamon, K. B., Daly, J. W. Forskolin: a unique diterpene activator of cyclic AMP-generating system. J. Cyclic Nucleotide Res. 7(4):201-24, 1981; Fradkin, J. E., Cook, G. H., Kilhoffer, M. C., Wolff, J. Forskolin stimulation of thyroid adenylate cyclase and cyclic 3′,5′-adenosine monophosphate accumulation. Endocrinology 111 (3):849-56, 1982; Barber, R., Goka, T. J. Adenylate cyclase activity as a function of forskolin concentration. J. Cyclic Nucleotide Protein Phosphor. Res. 10(1):23-9, 1985; and Laurenza, A., Sutkowski, E. M., Seamon, K. B. Forskolin: a specific stimulator of adenylyl cyclase or a diterpene with multiple sites of action? Trends Pharmacol. Sci. 10(11):442-7, 1989. […] The EC50 value was about 5 μM. AgRP inhibited the forskolin-induced response by 65% at a concentration of 10 nM. The difference in forskolin stimulated response and the inhibition due to AgRP in the cAMP levels was exploited to screen compounds for their ability to antagonize AgRP inhibition and […] levels of cAMP accumulation.
Experimental details for assays included incubating cells with the test compound in the presence of the inverse agonist AgRP with the extent of reversal of the AgRP effect measured by following the increase in the levels of intracellular cAMP. HEK-293 cells expressing MCR-4 were suspended in 10 mM HEPES/Earle's Balanced Salt Solution at pH 7.5 with the phosphodiesterase inhibitor IBMX, and pre-incubated for 30 minutes with the compounds (0.5-5000 nM). The cells were then treated with AgRP (10 nM) and incubated further for 30 minutes. The cells were then treated with forskolin (10 μM) and incubated for an additional 60 minutes. Cells were lysed and cAMP was measured by EIA kit (Amersham).

[11] = MC4-R membranes, Table 1, read-out: Ki (nM) I125-NPD-α-MSH
[12] = read-out: Ki (nM) (NDP-α-MSH) MC4-R
[13] = cAMP assay, read-out: EC50 (nM) at MC4-R
[14] = MC4-R membranes, Table 1, read-out: Ki (nM) I125-AgRP

Molecule	functional status at MC1-R [1]	functional status at MC3-R [2]	functional status at MC5-R [3]	Ki [4, 11] [nM]	attenuation of binding of α-MSH and AgRP to MC4-R [4]	Ki [4, 12] [nM]	Ki [5] [nM]	Ki [6] [nM]	Ki [7] [nM]	Inhibition at 1 μM (NDP-α-MSH) MC1-R [7] [%]	functional status (pAg, Ag, Antag, Inactive) ([8]; MC4-R, Table 1)	EC50 ([8]; MC4-R, Table 1, read-out: EC50) [nM]	intrinsic activity at MC4-R [8]	functional status at MC4-R ([8]; cAMP assay)	EC50 [8, 13] [nM]	Inhibition at 1 μM (AgRP) MC4-R [9] [%]	Ki [9, 14] [nM]	Ki ([9]; read-out: Ki (nM) (AgRP) MC4-R)	total response relative to NDP-α-MSH [10]	EC50 ([10]; read-out: EC50 value (cAMP stimulation)) [µM]
Cc1[nH]c2ccccc2c1CCN1C[C@H](CCCNC(=N)N)N(C(=O)[C@H](N)Cc2ccc3ccccc3c2)C[C@H]1C [Example 9, N-(3-{1-(2(R)-Amino-3-naphthalen-2-yl-propionyl)-5(R)-methyl-4-[2-(2-methyl-1H-indol-3-yl)-ethyl]-piperazin-2(S)-yl}-propyl)-guanidine]	partial agonist (intrinsic activity between 0.1 (10%) and 0.7 (70%) is classified as a partial agonist)	no intrinsic activity (intrinsic activity below 0.1 (10%) is classified as inactive or having no intrinsic activity)	agonist (intrinsic activity of 0.7 (70%) or higher is classified as an agonist)	26	attenuate the binding of both α-MSH and AgRP to MC4-R	26	293	451	148	73	Ag	384	0.9	agonist (intrinsic activity of 0.7 (70%) or higher is classified as an agonist)	> 384	92	35	35		
Cc1cc(Cl)ccc1C[C@@H](N)C(=O)N1C[C@@H](C)N(CCc2c[nH]c3ccccc23)C[C@@H]1CCCNC(=N)N [Example 10, N-(3-{1-(2(R)-Amino-(4-chloro-2-methyl-phenyl)-propionyl)-5(R)-methyl-4-[2-(1H-indol-3-yl)-ethyl]-piperazin-2(S)-yl}-propyl)-guanidine]	no intrinsic activity (intrinsic activity below 0.1 (10%) is classified as inactive or having no intrinsic activity)	no intrinsic activity (intrinsic activity below 0.1 (10%) is classified as inactive or having no intrinsic activity)	no intrinsic activity (intrinsic activity below 0.1 (10%) is classified as inactive or having no intrinsic activity)	5	attenuate the binding of both α-MSH and AgRP to MC4-R	5	360	177	1730	40	pAg (“pAg” means partial agonist)	7	1	partial agonists; also recorded: full agonist	> 7	97	5	5		
Cc1cc(Cl)ccc1C[C@@H](N)C(=O)N1C[C@@H](C)N(C(=O)Cc2ccc3ccccc3c2)C[C@@H]1CCCNC(=N)N [Example 11, N-{3-[1-[2(R)-amino-3-(4-chloro-2-dimethyl-phenyl)-propionyl]-5(R)-methyl-4-(2-naphthalen-2-yl-acetyl)-piperazin-2(S)-yl]-propyl}-guanidine]	partial agonist (intrinsic activity between 0.1 (10%) and 0.7 (70%) is classified as a partial agonist)	partial agonist (intrinsic activity between 0.1 (10%) and 0.7 (70%) is classified as a partial agonist)	agonist (intrinsic activity of 0.7 (70%) or higher is classified as an agonist)	3	attenuate the binding of both α-MSH and AgRP to MC4-R	3	774	398	462	3	Ag	18	0.9	agonist (intrinsic activity of 0.7 (70%) or higher is classified as an agonist)	18	89	27	27		
Forskolin [reference compound]																			three-fold higher	~5
